Results on one molecule are retold here after patent publication US9198915B2, “Methods involving aldose reductase inhibitors” (The Board of Regents of The University of Texas System, priority 2007, dated 2015).

SMILES strings stand for the structures.

One experiment deals with Lewis rats. The experiment in a line: Endotoxin-induced uveitis (EIU): infiltrating cells and total protein in aqueous humor, histopathology. The following applies: zopolrestat alone, no LPS. It is filed as in vivo, rat. As for the experimental part:
Six to eight-weeks-old male Lewis rats weighing approximately 150-160 g were used in this study (n=6). All animals were kept in the UTMB's Animal Care Center. All the animal studies were conducted in compliance with the ARVO statement for the use of Animals in Ophthalmic and Vision Research. EIU was induced by a subcutaneous injection of Escherichia coli LPS (200 μg) dissolved in phosphate-buffered saline (PBS, pH 7.4). Rats in ART and ETU+ARI groups were injected intraperitoneally with AR inhibitor zopolrestat (25 mg/kg body weight) dissolved in dimethyl-sulfoxide (DMSO) 24 h before and immediately after LPS injection. Rats of control group received carrier (PBS+20% DMSO) injection.
The rats were euthanized after 3, 6, and 24 h after LPS injection and the aqueous humor (AqH) was collected immediately from eye by an anterior chamber puncture using a 30-gauge needle under the surgical microscope. For cell counting, the AqH samples were suspended in an equal amount of Trypan-blue solution, and the cells were counted using a Hemocytometer under a light microscope (Olympus Optical Ltd). The total protein concentration in the AqH samples was measured using a Biorad protein assay kit (Biorad, CA, USA). The AqH samples were stored in ice water until testing, cell counts and total protein concentrations were measured on the day of sample collection. […]

Experiment [1] deals with COX-2, iNOS, Bcl-XL, Bax, cyclin D1, E2F2. The experiment in a line: RW-induced inflammatory, apoptosis and cell cycle proteins in SAEC (Western blot). It is filed as cell-based, human. Conditions: RW 50 μg/ml, 24 h. The source says: Fourty micrograms of cytoplasmic protein extracts, prepared as described earlier were resolved on 10% SDS-PAGE. After electrophoresis, the proteins were electro transferred to a nitrocellulose membrane, blocked with 5% nonfat milk in TBST, and probed with antibodies against COX-2, NOS2, Bcl-xL, Bax, cyclin D1, E2F2 (1:1,000 dilution) for 2 hr. The blot was then washed, exposed to HRP-conjugated secondary antibodies (1:5,000 dilution) for 1 hr, and the antigen-antibody complex was detected by enhanced chemiluminescence (Amersham Pharmacia Biotech, Piscataway, N.J., USA).

Experiment [2] concerns IL-6, IL-8 and Cox-2 mRNA. As to the kind of experiment: RW-induced IL-6, IL-8 and Cox-2 mRNA in SAEC (RT-PCR). It is filed as cell-based, human. Conditions: RW 50 μg/ml, 6 h. The method, then:
The SAECs were grown in 6-well plates at a density of approximately 3.0×10^5 cells/well. After approximately 80% confluence, cells were serum-starved in the presence or absence of sorbinil or zopolrestat (20 μM) for 24 h and then stimulated with 50 μg/ml RW for 6 h. Total RNA from SAECs was isolated by using RNeasy kit (Qiagen) as per supplier's instructions. Aliquots of RNA (0.5-1.0 μg) isolated from each sample were reverse transcribed with Omniscript and Sensiscript reverse transcriptase one-step RT-PCR system with HotStar Taq DNApolymerase (Qiagen) at 55° C. for 30 min followed by PCR amplification. The oligonucleotide primer sequences were as follows: 5′-ATGAACTCCT TCTCCACAAGCGC-3′ (SEQ ID NO:3) (sense) and 5′-[…]-3′ (SEQ TD NO:4) (antisense) for IL-6; 5′-[…]-3′ (SEQ ID NO:5) (sense) and 5′-TCT […]-3′ (SEQ ID NO:6) (antisense) for IL-8; 5 ‘-TGAAACCCACTCCA AACACAG-3’ (SEQ ID NO:7) (sense) and 5′-[…]-3′ (SEQ ID NO:8) (antisense) for Cox-2; and 5′-[…]-3′ (SEQ ID NO:9) (sense) and 5′-CGTC […]-3′ (SEQ ID NO:10) (antisense) for β-actin. PCR was carried out in a PCR Sprint thermal cycler (Thermo electron corporation, Milford, Mass.) under the following conditions: initial denaturation at 95° C. for 15 min followed by 35 cycles of 94° C. 1 min, 62° C. 1 min, 72° C. 1 min, and then 72° C. 10 min for final extension. […]

Experiment [3] concerns IL-6, IL-8 and Cox-2 mRNA. As to the kind of experiment: TNF-α- and LPS-induced IL-6, IL-8 and Cox-2 mRNA in SAEC (RT-PCR). The class given is cell-based, human. Conditions: TNF-α 2 nM or LPS 1 μg/ml, 6 h. As for the experimental part:
The SAEC were grown in 6-well plates at a density of approximately 3.0×10^5 cells/well. After approximately 80% confluence cells were serum-starved in the presence or absence of sorbinil (20 μM) or carrier for 24 h and then stimulated with either TNF-α (2 nM) or LPS (1 μg/mL). Total RNA from SAEC was isolated by using RNeasy kit (Qiagen) as per supplier's instructions. Aliquots of RNA (0.5-1.0 μg) isolated from each sample were reverse transcribed with Omniscript and Sensiscript reverse transcriptase one-step RT-PCR system with HotStar Taq DNApolymerase (Qiagen) at 55° C. for 30 min followed by PCR amplification. The oligonucleotide primer sequences were as follows: 5′-[…]-3′ (SEQ ID NO:3) (sense) and 5′-[…]-3′ (SEQ ID NO:4) (antisense) for IL-6; 5′-[…]-3′ (SEQ ID NO:5) (sense) and 5′-TCT […]-3′ (SEQ ID NO:6) (antisense) for IL-8; 5′-TGAAACCCACTCCA AACACAG-3′ (SEQ ID NO:7) (sense) and 5′-[…]-3′ (SEQ ID NO:8) (antisense) for Cox-2; and 5′-[…]-3′ (SEQ ID NO:9) (sense) and 5′-CGTC […]-3′ (SEQ ID NO:10) (antisense) for β-actin. PCR was carried out in a PCR Sprint thermal cycler (Thermo electron corporation, Milford, Mass.) under the following conditions: initial denaturation at 95° C. for 15 min followed by 35 cycles of 94° C. 1 min, 62° C. 1 min, 72° C. 1 min, and then 72° C. 10 min for final extension. […]

As for `O=C(O)Cc1nn(Cc2nc3cc(C(F)(F)F)ccc3s2)c(=O)c2ccccc12` [zopolrestat], the “infiltration of cells, H&E sections, compound alone” value in the experiment with Lewis rats is given as “No significant infiltration of cells”. In experiment [1], the “RW-induced increase of COX-2 and iNOS protein expression” value is “significantly prevented the increase”; the “prevention of RW-induced increase in expression of cyclin D1 and E2F2” value is above 90%. Also, in experiment [2], the “prevention of RW-induced increase of COX-2 mRNA levels” value is on record as above 60%; the “prevention of RW-induced increase of IL-6 and IL-8 mRNA levels” value is recorded as above 70%. Further, the “prevention of TNF-α- and LPS-induced increase of Cox-2 mRNA levels” value in experiment [3] is given as above 60%.
